The results in this text go back to publication PMC5818740, “Lock and chop: A novel method for the generation of a PICK1 PDZ domain and piperidine‐based inhibitor co‐crystal structure” (Protein Science : A Publication of the Protein Society, 2018).

This test has as its target PICK1 (protein interacting with kinase C1), PDZ domain (Homo sapiens, UniProt Q9NRD5). Kind of test: biochemical.

A word on the IC50: it is the midpoint of a concentration-inhibition curve. The low end stands for greater potency in that assay, the high end for weaker potency in that assay.

Chain of PICK1 (protein interacting with kinase C1), PDZ domain (Q9NRD5 1-357 limits assumed): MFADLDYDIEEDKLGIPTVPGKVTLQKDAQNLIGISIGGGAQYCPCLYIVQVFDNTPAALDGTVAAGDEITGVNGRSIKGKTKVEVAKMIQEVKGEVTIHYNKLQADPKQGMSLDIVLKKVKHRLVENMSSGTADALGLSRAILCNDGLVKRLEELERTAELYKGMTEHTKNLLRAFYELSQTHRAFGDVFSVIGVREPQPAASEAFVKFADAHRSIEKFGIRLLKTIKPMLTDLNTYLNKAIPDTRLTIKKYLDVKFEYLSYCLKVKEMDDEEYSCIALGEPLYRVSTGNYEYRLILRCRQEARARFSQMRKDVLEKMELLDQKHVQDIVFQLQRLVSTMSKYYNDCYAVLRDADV

In turn, `CC(C)(C)OC(=O)N1CCC[C@H]1C(=O)N1CCC(C(=O)N[C@H](C(=O)O)C2CCCC2)(c2ccc(Br)cc2)CC1` [BIO124] gave a half-inhibitory concentration (IC50) of 0.513 µM.
